This passage reports MIC results from ChEMBL document CHEMBL5136988, “Chlororesistoflavins A and B, Chlorinated Benzopyrene Antibiotics Produced by the Marine-Derived Actinomycete Streptomyces sp. Strain EG32” (2022).

As a reminder, the MIC is the lowest concentration that inhibits growth of the organism.

The structures appear in SMILES notation. Values after ≈ are worked out from the molar mass of the structure shown.

The test system of one assay is Staphylococcus aureus. The experiment in a line: Antibacterial activity against methicillin-resistant Staphylococcus aureus TCH1516 assessed as growth inhibition incubated for 20 hrs by CLSI based broth microdilution method. It is filed as functional.
For the next assay, the system named is Escherichia coli. The experiment in a line: Antibacterial activity against Escherichia coli LptD4213 assessed as growth inhibition incubated for 20 hrs by CLSI based broth microdilution method. It is filed as functional.

With `Cc1cc(O)c2c3c1C(=O)C=C1C(C)(C)C(=O)c4c(O)cc(O)c(c4[C@@]13O)C2=O`, the MIC in the assay on Staphylococcus aureus is 0.25 µg/mL (≈ 0.637 µM); in the assay with Escherichia coli it was 64 µg/mL (≈ 163 µM).

On to `Cc1cc(O)c2c3c1C(=O)C=C1C(C)(C)C(=O)c4c(O)c(Cl)c(O)c(c4[C@@]13O)C2=O`, for which the MIC with Staphylococcus aureus is 2 µg/mL (≈ 4.69 µM); with Escherichia coli, 128 µg/mL (≈ 300 µM).

As to `Cc1cc(O)c2c3c1C(=O)C(Cl)=C1C(C)(C)C(=O)c4c(O)cc(O)c(c4[C@@]13O)C2=O`, the figures for the MIC in the assay on Staphylococcus aureus and in the assay on Escherichia coli were 0.25 µg/mL (≈ 0.586 µM) and 32 µg/mL (≈ 75 µM), respectively.

Consider `Cc1cc(O)c2c3c4c(cc(O)c13)C(C)(C)C(=O)c1c(O)cc(O)c(c1-4)C2=O` [HELIOMYCIN], for which the figures for the MIC in the assay with Staphylococcus aureus and in the assay on Escherichia coli were 0.125 µg/mL (≈ 0.332 µM) and 32 µg/mL (≈ 85 µM), respectively.
